According to patent US20040049072A1, “RXR modulators with improved pharmacologic profile” (priority 1999, published 2004):
pKi: −log10 of the molar value. “Also recorded” adds a separate entry of the source. Where two headings read alike, the source gives them in different places.

Columns and labels:
[1] = test system: mice transgenic for the human apolipoprotein A-I gene; assay: transgenic mice carrying the human apo A-I gene (HDL cholesterol, triglycerides); type: in vivo, mouse
Text: Mice transgenic for the human apolipoprotein A-I gene (obtained from Jackson Laboratory) were used to evaluate PPARalpha mediated effects on HDL cholesterol. The mice were handled as described above for db/db mice, except that they were fed Purina 5001.

db/db mouse = db/db mouse study (rodent model of Type II diabetes); settings: for inhibition in vivo at 30 mg/kg: Mus musculus, po, 168 h, read-out: db/db mouse Glu. (D7); for db/db mouse Trigs. (D3): plasma triglycerides as % of control values, day 3, 30 mg/kg/day
Crl:CD-1 (ICR)BR mice = assay: teratogenicity in pregnant Crl:CD-1 (ICR)BR mice; type: in vivo, mouse; settings: for teratogenicity in fetuses: daily oral gavage, gestation days 6-18, L6 30 or 200 mg/kg-day, LG100268 30 or 100 mg/kg-day
Experimental: Teratogenicity is commonly evaluated by examination of fetuses obtained by cesarean section from pregnant mice dosed daily with test compound between gestation days 6-18. We have conducted a blinded study using time-mated female Crl:CD-1® (ICR)BR mice to evaluate potential developmental toxicity (teratogenicity) following administration of L6 at either 30 or 200 mg/kg-day by daily oral gavage for the specified […] of gestation. Each test group consisted of 7-8 pregnant females and produced approx. 100 live fetuses per test group. […] The highest dose of L6 tested (200 mg/kg-day) is twice the dose required to produce maximum antidiabetic activity in db/db mice (100 mg/kg-day).

RXRα:RAR heterodimer = target: T1, RXRα:RAR heterodimer (Homo sapiens, UniProt P19793); assay: RXR:RAR heterodimer co-transfection assay in CV-1 cells; type: cell-based; settings: CV-1; read-out: RXR:RAR CV-1 (%) Ag.
T1 construct: expressed in transfected cells; host or cells: CV-1 cells
T1 sequence (P19793 1-462): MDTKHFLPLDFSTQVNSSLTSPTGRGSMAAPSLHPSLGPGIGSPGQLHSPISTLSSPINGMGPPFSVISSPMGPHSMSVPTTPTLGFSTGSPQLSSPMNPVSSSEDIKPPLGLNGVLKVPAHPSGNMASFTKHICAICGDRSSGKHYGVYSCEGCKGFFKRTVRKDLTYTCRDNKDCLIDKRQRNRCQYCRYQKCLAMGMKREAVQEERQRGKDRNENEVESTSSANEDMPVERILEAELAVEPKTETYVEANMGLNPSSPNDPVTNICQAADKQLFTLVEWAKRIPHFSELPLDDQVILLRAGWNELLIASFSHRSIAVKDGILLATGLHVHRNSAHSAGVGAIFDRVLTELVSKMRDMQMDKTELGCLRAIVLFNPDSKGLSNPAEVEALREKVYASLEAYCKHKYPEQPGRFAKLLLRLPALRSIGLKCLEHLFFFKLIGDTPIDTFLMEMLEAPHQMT
Experimental: For determination of agonist activity in the context of the RXR:RAR heterodimer or the RXR:PPARγ heterodimer, media containing compounds of the present invention in concentrations ranging from 10^−10 to 10^−5 M were added to the cells.
Compounds of the present invention were also tested for the ability to synergize with a PPARγ agonist in the context of an RXR heterodimer. […] Efficacy of the compounds of the present invention in the agonist and synergy assays was calculated as the maximum response obtained over the range of the dose response curve relative to the maximum response obtained by the reference agonist. Antagonist efficacy was determined as a function (%) of maximal inhibition.
However, when RAR is occupied, typical RXR agonists activate the heterodimer. […] To examine the effects of the compounds of the present invention on the transcriptional properties of the RXR:RAR heterodimer, a heterodimer cotransfection assay as described above was employed.

RXRα = target: T2, RXRα (Homo sapiens, UniProt P19793); assay: RXRα binding (competition with tritiated LGD1069); settings: Table 2; from IC50 by Cheng-Prussof equation, tritiated LGD1069; read-out: Bind RXRα Ki
T2 sequence (P19793 1-462): T1 sequence (P19793 1-462)
Experimental: Non-specific binding was defined as that binding remaining in the presence of 500 nM of the appropriate unlabelled compound. At the end of the incubation period, bound ligand was separated from free. The amount of bound tritiated retinoid was determined by liquid scintillation counting of an aliquot (700 μL) of the supernatant fluid or the hydroxylapatite pellet.
After correcting for non-specific binding, IC50 values were determined. […] The IC50 value was determined graphically from a log-logit plot of the data. The Ki values were determined by application of the Cheng-Prussof equation to the IC50 values, the labeled ligand concentration and the Kd of the labeled ligand.

[2] = target: T3, (Homo sapiens, UniProt P19793); assay: RXR homodimer co-transfection assay in CV-1 cells; type: cell-based; settings: CV-1
T3 sequence (P19793 1-462): T1 sequence (P19793 1-462)
Text: In the co-transfection assay, cloned cDNA for one or more IRs (e.g., human RARα, RXRα, or PPARγ), alone or in combination (i.e. for heterodimer assays) under the control of a constitutive promoter (e.g., the SV 40, RSV or CMV promoter) is introduced by transfection (a procedure to introduce exogenous genes into cells) into a background cell substantially devoid of endogenous IRs. These introduced gene(s) direct the recipient cells to make the IR protein(s) of interest. A further gene is also introduced (co-transfected) into the same cells in conjunction with the IR gene(s). This further gene, comprising the cDNA for a reporter protein, such as firefly luciferase (LUC), controlled by an appropriate hormone responsive promoter containing a hormone response element (HRE). This reporter plasmid functions as a reporter for the transcriptional-modulating activity of the target IR(s). Thus, the reporter acts as a surrogate for the products (mRNA then protein) normally expressed by a gene under control of the target receptor(s) and their native hormone(s).
Exposing the transfected cells to an agonist ligand compound increases reporter activity in the transfected cells. This activity can be conveniently measured, e.g., by increasing luciferase production and enzymatic activity, which reflects compound-dependent, IR-mediated increases in reporter transcription. […] Increasing concentrations of an antagonist will decrease the reporter signal (e.g., luciferase production). The co-transfection assay is therefore useful to detect both agonists and antagonists of specific IRs. Furthermore, it determines not only whether a compound interacts with a particular IR, but whether this interaction mimics (agonizes) or blocks (antagonizes) the effects of native or synthetic regulatory molecules on target gene expression, as well as the specificity and strength of this interaction.
The receptor expression plasmid was cotransfected along with a reporter plasmid at 50 ng/well, the internal control plasmid pRS-β-Gal at 50 ng/well and filler DNA, pGEM, at 90 ng/well.
Six hours after transfection, media was removed and the cells were washed with phosphate-buffered saline (PBS). Media containing compounds of the present invention in concentrations ranging from 10^−10 to 10^−5 M were added to the cells. […] Retinoids were dissolved in dimethylsulfoxide for use in the transcriptional activation assays. Two to three replicates were used for each sample. Transfections and subsequent procedures were performed on a Biomek 1000 automated workstation.
After 40 hours, the cells were washed with PBS, lysed with a detergent-based buffer and assayed for LUC and β-Gal activities using a luminometer or spectrophotometer, respectively. For each replicate, the normalized response (NR) was calculated as: […]
The mean and standard error of the mean (SEM) of the NR were calculated. Data were plotted as the response of the compound compared to the reference compounds over the range of the dose-response curve. […] Antagonist activity was determined by testing the amount of LUC expression in the presence of the RXR agonists described above at the EC50 concentration for such known compounds. […] In addition, the efficacy of antagonists was determined as a function (%) of maximal inhibition.

[3] = rodent models of Type II Diabetes

Emax (RXRα:RAR heterodimer) [%]	pKi (RXRα)	Emax ([2]; Table 2, first RXR:RAR head (c4), maximal repression (100%) in presence of 32 nM LGD1069 (RXR:RXR), read-out: RXR:RAR CV-1 (%) Antag.) [%]	Emax ([2]; read-out: RXR:RAR CV-1 (%) Ag.) [%]	Structure (SMILES)	triglycerides [1]	inhibition in vivo at 30 mg/kg (db/db mouse) [%]	db/db mouse Glu. (D 14) (db/db mouse; plasma glucose, % correction relative to lean values, day 14, 100 mg/kg daily oral gavage) [%]	db/db mouse Trigs. (D3) (db/db mouse) [%]	db/db mouse Trigs. (D 14) (db/db mouse; plasma triglycerides, % correction relative to lean values, day 14, NC = no change) [%]	effect on the thyroid hormone axis (db/db mouse; [3])	effect on triglycerides (db/db mouse; [3])	insulin sensitizing activity / effect on glucose (db/db mouse; [3])	db/db mouse T4 (D 3) (db/db mouse; total T4 as % of obese control values, day 3, NC = no change) [%]	teratogenicity in fetuses (Crl:CD-1 (ICR)BR mice)	insulin sensitizing activity with thyroid axis suppression and triglyceride elevations (db/db mouse; [3])	dose required to produce maximum antidiabetic activity in db/db mice (db/db mouse; db/db mice) [mg/kg-day]	Corpora lutea, implantation sites, live or dead fetuses, resorptions, fetal weight or sex, external and cranial visceral morphology (Crl:CD-1 (ICR)BR mice; L6 at 30 or 200 mg/kg-day compared to vehicle controls)
–	–	–	–	Cc1cc2c(cc1C1(c3ccc(C(=O)O)cn3)CC1)C(C)(C)CCC2(C)C [LG100268, 6-[1-(3,5,5,8,8-pentamethyl-5,6,7,8-tetrahydronaphthalen-2-yl)cyclopropyl]nicotinic acid, reference compound]	substantially raise triglycerides	73	73	195	82	suppress the thyroid hormone axis	raise triglycerides	efficacious insulin sensitizers	43	Teratogenicity was observed	–	–	–
2	8.30	80	3	CC(/C=C/C1=C(c2cc(C(C)C)cc(C(C)C)c2OCCCF)CCC1)=C\C(=O)O [Compound L14]	–	45	–	138	–	–	–	–	–	–	maintain the desirable insulin sensitizing activity and minimize both the suppression of the thyroid axis and triglyceride elevations	–	–
–	–	–	–	CCCCOc1c(\C(C)=C/C=C/C(C)=C/C(=O)O)cc(C(C)C)cc1C(C)C [Compound L6]	–	–	–	–	–	–	–	–	–	no teratogenic effects were observed	maintain the desirable insulin sensitizing activity and eliminate or reduce both the suppression of the thyroid axis and triglyceride elevations; also recorded: maintain the desirable insulin sensitizing activity and minimize both the suppression of the thyroid axis and triglyceride elevations	100	no effects were observed
